What was measured:
Format in all cases: in vivo
Downy Brome [1] = assay: Post-emergent herbicidal test; conditions: 4 WAT, 11.2 kg/h
Method: (§1) The post-emergent tests were conducted as follows:
(§2) The active ingredients are applied in spray form to two or three week old specimens of various plant species. The spray, a solution or wettable powder suspension containing the appropriate rate of active ingredient to give the desired test rate and a surfactant, is applied to the plants.
(§3) The compounds were also tested by utilizing the above procedure on the following plant species: […]

Yellow Nutsedge [2] = assay: Post-emergent herbicidal test; conditions: 4 WAT, 11.2 kg/h
Method: as §1, §2, §3

Morningglory [3] = assay: Post-emergent herbicidal test; conditions: 4 WAT, 11.2 kg/h
Method: as §1, §2, §3

Lambsquarters [4] = assay: Post-emergent herbicidal test; conditions: 4 WAT, 11.2 kg/h
Method: as §1, §2, §3

Canada Thistle [5] = assay: Post-emergent herbicidal test; conditions: 4 WAT, 11.2 kg/h
Method: as §1, §2, §3

Smartweed [6] = assay: Post-emergent herbicidal test; conditions: 4 WAT, 11.2 kg/h
Method: as §1, §2, §3

Johnsongrass [7] = assay: Post-emergent herbicidal test; conditions: 4 WAT, 11.2 kg/h
Method: as §1, §2, §3

Barnyardgrass [8] = assay: Post-emergent herbicidal test; conditions: 4 WAT, 11.2 kg/h
Method: as §1, §2, §3

Quackgrass [9] = assay: Post-emergent herbicidal test; conditions: 4 WAT, 11.2 kg/h
Method: as §1, §2, §3

Velvetleaf [10] = assay: Post-emergent herbicidal test; conditions: 4 WAT, 11.2 kg/h
Method: as §1, §2, §3

Cocklebur [11] = assay: Post-emergent herbicidal test; conditions: 4 WAT, 11.2 kg/h
Method: as §1, §2, §3

Downy Brome [12] = assay: Pre-emergent herbicidal test; conditions: 4 WAT
Method: (§4) The pre-emergent test was conducted as follows:
(§5) A good grade of top soil was placed in aluminum pans and compacted to a depth of three-eighths to one-half inch from the top of the pan. On the top of the soil was placed a predetermined number of seeds or vegetative propagules of various plant species which were pressed into the soil surface. The soil required to level fill the pans after seeding or adding vegetative propagules was weighed into a pan. A known amount of the active ingredient applied in a solvent or as a wettable powder and the soil were thoroughly mixed, and used as a cover layer for prepared pans.
(§6) The herbicidal rating was obtained by means of a fixed scale based on the percent injury of each plant species. The ratings are defined as follows: […]
as §3

Yellow Nutsedge [13] = assay: Pre-emergent herbicidal test; conditions: 4 WAT, 11.2 kg/h
Method: as §4, §5, §6, §3

Morningglory [14] = assay: Pre-emergent herbicidal test; conditions: 4 WAT
Method: as §4, §5, §6, §3

Lambsquarters [15] = assay: Pre-emergent herbicidal test; conditions: 4 WAT
Method: as §4, §5, §6, §3

Canada Thistle [16] = assay: Pre-emergent herbicidal test; conditions: 4 WAT, 11.2 kg/h
Method: as §4, §5, §6, §3

Smartweed [17] = assay: Pre-emergent herbicidal test; conditions: 4 WAT
Method: as §4, §5, §6, §3

Johnsongrass [18] = assay: Pre-emergent herbicidal test; conditions: 4 WAT, 11.2 kg/h
Method: as §4, §5, §6, §3

Barnyardgrass [19] = assay: Pre-emergent herbicidal test; conditions: 4 WAT
Method: as §4, §5, §6, §3

Quackgrass [20] = assay: Pre-emergent herbicidal test; conditions: 4 WAT, 11.2 kg/h
Method: as §4, §5, §6, §3

Velvetleaf [21] = assay: Pre-emergent herbicidal test; conditions: 4 WAT
Method: as §4, §5, §6, §3

Cocklebur [22] = assay: Pre-emergent herbicidal test; conditions: 4 WAT
Method: as §4, §5, §6, §3

Crabgrass = assay: Pre-emergent herbicidal test; conditions: 4 WAT
Method: as §4, §5, §6

Sugarbeet = assay: Pre-emergent herbicidal test; conditions: 4 WAT
Method: as §4, §5, §6

Soybean = assay: Pre-emergent herbicidal test; conditions: 4 WAT
Method: as §4, §5, §6

Wild Buckwheat = assay: Pre-emergent herbicidal test; conditions: 4 WAT
Method: as §4, §5, §6

Hemp Sesbania = assay: Pre-emergent herbicidal test; conditions: 4 WAT
Method: as §4, §5, §6

Panicum Spp. = assay: Pre-emergent herbicidal test; conditions: 4 WAT
Method: as §4, §5, §6

Sorghum = assay: Pre-emergent herbicidal test; conditions: 4 WAT
Method: as §4, §5, §6

Wheat = assay: Pre-emergent herbicidal test; conditions: 4 WAT
Method: as §4, §5, §6

Rice = assay: Pre-emergent herbicidal test; conditions: 4 WAT
Method: as §4, §5, §6
Also: ranges in brackets are in %.

Compound: CCCCCOC(=O)c1ccccc1-c1cc(-c2cccc(C(F)(F)F)c2)no1 [Example 7, n-Pentyl 2-[3-[3-(Trifluoromethyl)Phenyl]-5-Isoxazolyl]Benzoate]
- herbicidal rating (Downy Brome [1]): 0 (0-24)
- herbicidal rating (Yellow Nutsedge [2]): 1 (25-49)
- herbicidal rating (Morningglory [3]): 2 (50-74)
- herbicidal rating (Lambsquarters [4]): 1 (25-49)
- herbicidal rating (Canada Thistle [5]): 2 (50-74)
- herbicidal rating (Smartweed [6]): 1 (25-49)
- herbicidal rating (Johnsongrass [7]): 2 (50-74)
- herbicidal rating (Barnyardgrass [8]): 1 (25-49)
- herbicidal rating (Quackgrass [9]): 0 (0-24)
- herbicidal rating (Velvetleaf [10]): 1 (25-49)
- herbicidal rating (Cocklebur [11]): 2 (50-74)
- herbicidal rating (Downy Brome [12]; 0.28 kg/h): 2 (50-74)
- herbicidal rating (Downy Brome [12]; 1.12 kg/h): 1 (25-49)
- herbicidal rating (Downy Brome [12]; 5.60 kg/h): 2 (50-74)
- herbicidal rating (Downy Brome [12]; 11.2 kg/h): 1 (25-49)
- herbicidal rating (Yellow Nutsedge [13]): 0 (0-24)
- herbicidal rating (Morningglory [14]; 0.28 kg/h): 0 (0-24)
- herbicidal rating (Morningglory [14]; 1.12 kg/h): 2 (50-74)
- herbicidal rating (Morningglory [14]; 5.60 kg/h): 2 (50-74)
- herbicidal rating (Morningglory [14]; 11.2 kg/h): 1 (25-49)
- herbicidal rating (Lambsquarters [15]; 0.28 kg/h): 1 (25-49)
- herbicidal rating (Lambsquarters [15]; 1.12 kg/h): 2 (50-74)
- herbicidal rating (Lambsquarters [15]; 5.60 kg/h): 2 (50-74)
- herbicidal rating (Lambsquarters [15]; 11.2 kg/h): 3 (75-100)
- herbicidal rating (Canada Thistle [16]): 1 (25-49)
- herbicidal rating (Smartweed [17]; 0.28 kg/h): 0 (0-24)
- herbicidal rating (Smartweed [17]; 1.12 kg/h): 2 (50-74)
- herbicidal rating (Smartweed [17]; 5.60 kg/h): 2 (50-74)
- herbicidal rating (Smartweed [17]; 11.2 kg/h): 2 (50-74)
- herbicidal rating (Johnsongrass [18]): 1 (25-49)
- herbicidal rating (Barnyardgrass [19]; 0.28 kg/h): 2 (50-74)
- herbicidal rating (Barnyardgrass [19]; 1.12 kg/h): 2 (50-74)
- herbicidal rating (Barnyardgrass [19]; 5.60 kg/h): 3 (75-100)
- herbicidal rating (Barnyardgrass [19]; 11.2 kg/h): 3 (75-100)
- herbicidal rating (Quackgrass [20]): 2 (50-74)
- herbicidal rating (Velvetleaf [21]; 0.28 kg/h): 0 (0-24)
- herbicidal rating (Velvetleaf [21]; 1.12 kg/h): 0 (0-24)
- herbicidal rating (Velvetleaf [21]; 5.60 kg/h): 1 (25-49)
- herbicidal rating (Velvetleaf [21]; 11.2 kg/h): 0 (0-24)
- herbicidal rating (Cocklebur [22]; 0.28 kg/h): 0 (0-24)
- herbicidal rating (Cocklebur [22]; 1.12 kg/h): 0 (0-24)
- herbicidal rating (Cocklebur [22]; 5.60 kg/h): 1 (25-49)
- herbicidal rating (Cocklebur [22]; 11.2 kg/h): 1 (25-49)
- herbicidal rating (Crabgrass; 0.28 kg/h): 0 (0-24)
- herbicidal rating (Crabgrass; 1.12 kg/h): 0 (0-24)
- herbicidal rating (Crabgrass; 5.60 kg/h): 3 (75-100)
- herbicidal rating (Sugarbeet; 0.28 kg/h): 3 (75-100)
- herbicidal rating (Sugarbeet; 1.12 kg/h): 2 (50-74)
- herbicidal rating (Sugarbeet; 5.60 kg/h): 2 (50-74)
- herbicidal rating (Soybean; 0.28 kg/h): 0 (0-24)
- herbicidal rating (Soybean; 1.12 kg/h): 0 (0-24)
- herbicidal rating (Soybean; 5.60 kg/h): 3 (75-100)
- herbicidal rating (Wild Buckwheat; 0.28 kg/h): 3 (75-100)
- herbicidal rating (Wild Buckwheat; 1.12 kg/h): 2 (50-74)
- herbicidal rating (Wild Buckwheat; 5.60 kg/h): 2 (50-74)
- herbicidal rating (Hemp Sesbania; 0.28 kg/h): 0 (0-24)
- herbicidal rating (Hemp Sesbania; 1.12 kg/h): 1 (25-49)
- herbicidal rating (Hemp Sesbania; 5.60 kg/h): 2 (50-74)
- herbicidal rating (Panicum Spp.; 1.12 kg/h): 0 (0-24)
- herbicidal rating (Panicum Spp.; 5.60 kg/h): 2 (50-74)
- herbicidal rating (Sorghum; 0.28 kg/h): 0 (0-24)
- herbicidal rating (Sorghum; 1.12 kg/h): 1 (25-49)
- herbicidal rating (Sorghum; 5.60 kg/h): 3 (75-100)
- herbicidal rating (Wheat; 0.28 kg/h): 0 (0-24)
- herbicidal rating (Wheat; 1.12 kg/h): 1 (25-49)
- herbicidal rating (Wheat; 5.60 kg/h): 1 (25-49)
- herbicidal rating (Rice; 0.28 kg/h): 1 (25-49)
- herbicidal rating (Rice; 1.12 kg/h): 2 (50-74)
- herbicidal rating (Rice; 5.60 kg/h): 3 (75-100)
